Several values for one entry are separate records, joined by “and”; a condition that tells them apart may be missing. Equal entries are not always repeated.
System: 186277-243-T-J2-PDC complex spheroid growth, % test/control
Assay: Anticancer human tumor 186277-243-T-J2-PDC patient-derived colon adenocarcinoma cell line growth inhibition [Asc]
Conditions: for viability, T/C: stronger effect = lower value; active = viability on the fitted dose curve at most 10% of control; inactive = the rest
How it was run: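 Spheroid model: tumor line + HUVEC + hMSC. Single agents and combinations; top conc. at/near clinical Cmax (10 microM if undetermined), half-log dilutions. DMSO stocks at 800-fold test concentration.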
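Also: spheroids exposed to agents for 7 days.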
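For viability, T/C in this document: 100% = DMSO vehicle control wells.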

CNC(C)C(=O)NC1CN(S(=O)(=O)c2cccc(S(=O)(=O)N3CCC4CCC(C(=O)NC(c5ccccc5)c5ccccc5)N4C(=O)C(NC(=O)C(C)NC)C3)c2)CCC2CCC(C(=O)NC(c3ccccc3)c3ccccc3)N2C1=O (configuration not stated) + CCN1C(C(=O)NC23CCC(C(=O)O)(CC2)CC3)C(c2cccc(Cl)c2F)C2(C(=O)Nc3cc(Cl)ccc32)C12CCCCC2
inactive: viability, T/C (second compound 0.03 µM, first compound 0.00316 µM) 101% | viability, T/C (second compound 0.03 µM, first compound 0.01 µM) 131% | viability, T/C (second compound 0.03 µM, first compound 0.0316 µM) 113% | viability, T/C (second compound 0.03 µM, first compound 0.1 µM) 102% | viability, T/C (second compound 0.03 µM, first compound 0.316 µM) 113% | viability, T/C (second compound 0.03 µM, first compound 1 µM) 112% | viability, T/C (second compound 0.0949 µM, first compound 0.00316 µM) 115% | viability, T/C (second compound 0.0949 µM, first compound 0.01 µM) 114% | viability, T/C (second compound 0.0949 µM, first compound 0.0316 µM) 111% | viability, T/C (second compound 0.0949 µM, first compound 0.1 µM) 94.9% | viability, T/C (second compound 0.0949 µM, first compound 0.316 µM) 82.5% | viability, T/C (second compound 0.0949 µM, first compound 1 µM) 84.9% | viability, T/C (second compound 0.3 µM, first compound 0.00316 µM) 73.6% | viability, T/C (second compound 0.3 µM, first compound 0.01 µM) 79.6% | viability, T/C (second compound 0.3 µM, first compound 0.0316 µM) 87% | viability, T/C (second compound 0.3 µM, first compound 0.1 µM) 77.2% | viability, T/C (second compound 0.3 µM, first compound 0.316 µM) 77.2% | viability, T/C (second compound 0.3 µM, first compound 1 µM) 56.6% | viability, T/C (second compound 0.949 µM, first compound 0.00316 µM) 60.8% | viability, T/C (second compound 0.949 µM, first compound 0.01 µM) 54.8% | viability, T/C (second compound 0.949 µM, first compound 0.0316 µM) 56.7% | viability, T/C (second compound 0.949 µM, first compound 0.1 µM) 55.7% | viability, T/C (second compound 0.949 µM, first compound 0.316 µM) 55.6% | viability, T/C (second compound 0.949 µM, first compound 1 µM) 32.4% | viability, T/C (second compound 3 µM, first compound 0.00316 µM) 36.9% | viability, T/C (second compound 3 µM, first compound 0.01 µM) 37.6% | viability, T/C (second compound 3 µM, first compound 0.0316 µM) 36.2% | viability, T/C (second compound 3 µM, first compound 0.1 µM) 31.5% | viability, T/C (second compound 3 µM, first compound 0.316 µM) 29.6% | viability, T/C (second compound 3 µM, first compound 1 µM) 28.8%
> 1000 nM: IC50 (curve of first compound, second compound 0.03 µM) | IC50 (curve of first compound, second compound 0.0949 µM) | IC50 (curve of first compound, second compound 0.3 µM)
< 3.16 nM: IC50 (curve of first compound, second compound 3 µM)
415 nM: IC50 (curve of first compound, second compound 0.949 µM)

Cn1ncnc1[C@H]1c2n[nH]c(=O)c3cc(F)cc(c23)N[C@@H]1c1ccc(F)cc1
inactive: viability, T/C (compound 0.000316 µM) 93% and 95.2% and 74.1% | viability, T/C (compound 0.001 µM) 99.3% and 88.2% and 97.6% | viability, T/C (compound 0.00316 µM) 108% and 104% and 99.5% | viability, T/C (compound 0.01 µM) 116% and 118% and 84.3% | viability, T/C (compound 0.0316 µM) 118% and 122% and 108% | viability, T/C (compound 0.1 µM) 111% and 134% and 100%
> 100 nM: IC50 (curve of compound)

From PubChem BioAssay AID1963426 (Molecular Pharmacology Branch, DTP, NCI, 2024)
